From patent publication US10770169B2, “Method of providing a treatment to a subject based on a dynamic pathway map” (THE REGENTS OF THE UNIVERSITY OF CALIFORNIA, priority 2010, dated 2020)
“Also recorded” adds a separate entry of the source.

Key:
[1] = system: luminal, basal, claudin-low and ERBB2AMP breast cancer cell lines; experiment: Associations of clinically relevant subtypes and response (non-parametric ANOVA or t-test on GI50 ranks); format: cell-based, human; settings: for Subtype specificity: Table 6, most sensitive subtype, FDR p<0.20; for subtype-specific response (sensitivity by transcriptional subtype): GI50 across subtypes
Description: A central premise of this study is that associations between responses and molecular subtypes observed in preclinical cell line analyses will be recapitulated in the clinic in instances where the predictive molecular features in the cell lines are mirrored in human tumors. We established response-subtype associations by using non-parametric ANOVAs to compare […] values across transcriptional and genomics subtypes.
Differences between GI50s of the groups were compared with a non-parametric ANOVA or t-test, as appropriate, on the ranks. We combined the p-values for the three sets of tests and used false discovery rate (FDR) to correct for multiple testing. For the three-sample test, we performed a post-hoc analysis on the compounds with a significant class effect by comparing each group to all others to determine which group was most sensitive. The p-values for the post-hoc test were FDR-corrected together. In all cases, FDR p<0.20 was deemed significant. […] Analyses were performed in R.

[2] = system: panel of 55 breast cancer cell lines; experiment: Cell growth inhibition assay (Cell Titer Glo, 72 h, 9 doses; GI50, TGI, LC50); format: cell-based, human; settings: value is the negative log10 of mol/L

Q: What does the source list for COc1cc2ncnc(Nc3cccc(Cl)c3)c2cc1OC [AG1478]?
A: association of response with ERBB2 amplification [1]: positively associated with ERBB2 amplification; Subtype specificity [1]: ERBB2AMP; GI50 ([2]; 600MPE cell line, censored GI50 values): 3.99; GI50 ([2]; AU565 cell line, censored GI50 values): 4.57; GI50 ([2]; BT474 cell line, censored GI50 values): 6.17; GI50 ([2]; BT483 cell line, censored GI50 values): 5.64; GI50 ([2]; BT549 cell line, censored GI50 values): 4.41; GI50 ([2]; CAMA1 cell line, censored GI50 values): 4.46; GI50 ([2]; HCC38 cell line, censored GI50 values): 4.03; GI50 ([2]; HCC202 cell line, censored GI50 values): 5.75; GI50 ([2]; HCC1395 cell line, censored GI50 values): 4.57; GI50 ([2]; HCC1419 cell line, censored GI50 values): 5.92; GI50 ([2]; HCC1500 cell line, censored GI50 values): 4.58; GI50 ([2]; HCC1806 cell line, censored GI50 values): 4.07; GI50 ([2]; HCC1937 cell line, censored GI50 values): 4.88; GI50 ([2]; HCC1954 cell line, censored GI50 values): 5.64; GI50 ([2]; HCC2185 cell line, censored GI50 values): 4.33; GI50 ([2]; MDAMB134VI cell line, censored GI50 values): 4.00; GI50 ([2]; MDAMB157 cell line, censored GI50 values): 4.47; GI50 ([2]; MDAMB175VII cell line, censored GI50 values): 6.19; GI50 ([2]; MDAMB361 cell line, censored GI50 values): 4.71; GI50 ([2]; MDAMB436 cell line, censored GI50 values): 3.99; GI50 ([2]; MDAMB468 cell line, censored GI50 values): 4.02; GI50 ([2]; SKBR3 cell line, censored GI50 values): 4.92; GI50 ([2]; SUM149PT cell line, censored GI50 values): 5.74; GI50 ([2]; SUM159PT cell line, censored GI50 values): 4.77; GI50 ([2]; SUM1315MO2 cell line, censored GI50 values): 5.60; GI50 ([2]; T47D cell line, censored GI50 values): 4.74; GI50 ([2]; UACC893 cell line, censored GI50 values): 5.65; GI50 ([2]; cell line 600MPE): 3.99; GI50 ([2]; cell line AU565): 4.57; GI50 ([2]; cell line BT474): 6.17; GI50 ([2]; cell line BT483): 5.64; GI50 ([2]; cell line BT549): 4.41; GI50 ([2]; cell line CAMA1): 4.46; GI50 ([2]; cell line HCC38): 4.03; GI50 ([2]; cell line HCC70): 3.94; GI50 ([2]; cell line HCC202): 5.75; GI50 ([2]; cell line HCC1143): 3.78; GI50 ([2]; cell line HCC1187): 3.78; GI50 ([2]; cell line HCC1395): 4.57; GI50 ([2]; cell line HCC1419): 5.92; GI50 ([2]; cell line HCC1428): 3.78; GI50 ([2]; cell line HCC1500): 4.58; GI50 ([2]; cell line HCC1806): 4.07; GI50 ([2]; cell line HCC1937): 4.88; GI50 ([2]; cell line HCC1954): 5.64; GI50 ([2]; cell line HCC2185): 4.33; GI50 ([2]; cell line LY2): 3.78; GI50 ([2]; cell line MDAMB134V): 4.00; GI50 ([2]; cell line MDAMB157): 4.47; GI50 ([2]; cell line MDAMB175V): 6.19; GI50 ([2]; cell line MDAMB361): 4.71; GI50 ([2]; cell line MDAMB415): 3.78; GI50 ([2]; cell line MDAMB436): 3.99; GI50 ([2]; cell line MDAMB453): 3.78; GI50 ([2]; cell line MDAMB468): 4.02; GI50 ([2]; cell line SKBR3): 4.92; GI50 ([2]; cell line SUM52PE): 3.78; GI50 ([2]; cell line SUM149PT): 5.74; GI50 ([2]; cell line SUM159PT): 4.77; GI50 ([2]; cell line SUM185PE): 3.78; GI50 ([2]; cell line SUM1315MO): 5.60; GI50 ([2]; cell line T47D): 4.74; GI50 ([2]; cell line UACC893): 5.65; GI50 ([2]; cell line ZR75B): 3.78; GI50 ([2]; cell line ZR751): 3.78

Q: Which results are given for N.N.[Cl][Pt][Cl] [Cisplatin]?
A: subtype-specific response (sensitivity by transcriptional subtype) [1]: preferential activity in basal and/or claudin-low cell lines; also recorded: basal cell lines are preferentially sensitive; also recorded: Basal breast cancer cell lines preferentially respond; Subtype specificity [1]: Basal

Q: C[C@@H](Oc1cc(-n2cnc3ccc(CN4CCN(C)CC4)cc32)sc1C(N)=O)c1ccccc1C(F)(F)F [GSK461364] was tested. Which “subtype-specific response (sensitivity by transcriptional subtype)” value [1] did it give?
A: Its value is “more active against basal and claudin-low cell lines”.

Q: What about the Subtype specificity [1] of the same molecule?
A: The Subtype specificity was “Basal + Claudin-low”.

Q: How did the Subtype specificity [1] turn out when O=C1NC(=O)/C(=C/c2ccc3nccc(-c4ccncc4)c3c2)S1 [GSK1059615] was run?
A: The Subtype specificity was “Luminal/ERBB2AMP”.
